Experimental data reported in publication PMC7211193, “Evaluation of absorption, distribution, metabolism, and excretion of [^14C]-rucaparib, a poly(ADP-ribose) polymerase inhibitor, in patients with advanced solid tumors” (Investigational New Drugs, 2019).
Values joined by “and” are separate entries in the source; they are usually repeats but may differ in a detail not shown here. Equal entries are not always repeated. Values belong to the compound of their own block, whether it stands above or below them.

What was measured:
Type in all cases: in vivo, human
[1] = Metabolite profiling in pooled urine (LC-MS-Radiomatic)
Description: For each patient, urine samples from different collection intervals were pooled in proportion to their sample weight in order to obtain a pooled sample covering 90% of the TRA in urine. Pooled urine samples were lyophilized and then extracted at least twice with acetonitrile. The obtained supernatant was evaporated to dryness, and the dried residues were reconstituted in 20% acetonitrile in water containing 0.1% TFA. An aliquot of the supernatant was analyzed for TRA to determine extraction efficiency, and the mean recovery was ≈70%. Aliquots of the supernatants were injected into the HPLC coupled to UV and radioactive detectors to obtain metabolite profiles. The samples were also analyzed using LC-MS for metabolite identification.
(§1) Metabolite profiling and identification were performed on an LC system (Agilent) coupled to an LTQ Orbitrap mass spectrometer (Thermo Electron, Waltham, MA, USA) in combination with offline TopCount (LC-MS-TopCount) or online Radiomatic 625TR (LC-MS-Radiomatic; PerkinElmer). Proposed structures of the metabolites were based on accurate mass (<5 ppm) and comparison of mass spectral data of parent compound rucaparib and metabolite standard M324. The Radiomatic 625TR flow detector, equipped with a 200 μL flow cell, was operated using scintillation cocktail (Ultima-Flo M) delivered at a flow rate of 1 mL/min. Chromatography was done using a Phenomenex (Torrance, CA, USA) Luna Phenyl-Hexyl column (250 × 2 mm, 5 μm, 100 Å) at ambient temperature during the sample analysis. The mobile phase was (A) 0.05% TFA in water and (B) 0.05% TFA in acetonitrile, with a 0.2 mL/min flow rate. The gradient was as follows: 5% B over 2.1 min, to 20% B in 1.0 min, to 35% B in 16.9 min, isocratic at 35% B for 5 min, to 95% B over 5 min, and reduced to 5% B over 1 min, with total run time 45 min.
(§2) The abundance of unchanged rucaparib and metabolites identified in plasma, urine, and feces was determined as a percentage of the TRA in the analyzed samples. Percentage of the administered dose of rucaparib and metabolites was calculated in urine and feces (formula A). The concentration of rucaparib and its metabolites in plasma (ng Eq h/mL) was calculated based on the specific activity, TRA, and percentage of peaks (formula B). The AUC0-24h value of rucaparib and its major metabolite M324 in plasma was calculated using both Hamilton method (formula C) and linear trapezoidal method (formula D). • (A) %Doseofmetabolite=TRAinurineorfeces(dpm)÷TRAinadministereddose(dpm)×%metabolitesinmatrix • (B) Metaboliteconcentrationsinplasma(ngEq/mL)=TRAinplasma(dpm/mL)specificactivity(ngEq/dpm)×%metabolitesinthematrix • (C) Hamiltonmethod:AUC0−24h(ngEqh/mL)=concentrationinHamilton(AUC0−24h)pooledplasma(ngEq/mL)×24(h) • (D) Lineartrapezoidalmethod:AUC0−24h(ngEqh/mL)=C1h/2×1h+C1h+C4h/2×(4h−1h)+C4h+C8h/2×(8h−4h)+C8h+C24h/2×(24h−8h)

[2] = Metabolite profiling in pooled feces (LC-MS-Radiomatic); details: for Amount detected in feces: pooled fecal homogenates, mainly observed by MS only
Description: For each patient, homogenized feces samples from different collection intervals were pooled in proportion to their sample weight in order to obtain a pooled sample covering 90% of the TRA recovered in feces. Aliquots of the pooled fecal samples were extracted at least twice with acetonitrile. The obtained supernatant was evaporated. The dried residues were reconstituted in 40% DMSO in water to obtain maximum recovery. An aliquot of the supernatant was analyzed for TRA to determine extraction efficiency, and the mean recovery was ≈75%. Aliquots of the supernatants were injected into the HPLC coupled to UV and radioactive detectors to obtain metabolite profiles. The sample supernatants were also analyzed using LC-MS to identify metabolites.
as §1, §2

[3] = Metabolite identification by LC-MS/MS in plasma, urine and feces; details: F feces, P plasma, U urine
Description: as §1
The LTQ Orbitrap mass spectrometer was equipped with an electrospray ionization interface and operated in positive ionization mode for metabolite profiling and identification. Mass spectra were acquired in full scan (MS) (m/z 150–1500) and data-dependent scan modes. Mass spectrometer parameter settings were: spray voltage, +5.0 kV; capillary temperature, 350 °C; sheath gas, 80 (arbitrary unit); auxiliary gas, 30 (arbitrary unit); activation Q, 0.25; activation time, 30 msec; resolution, 7500; and collision energy, 35 eV.
The structures of the metabolites were identified by LC-MS/MS based on comparisons of mass spectral fragmentation patterns with those produced by the parent compound. Further confirmation of the identities of the metabolites was based on the elemental composition determined from accurate mass analyses using an Orbitrap high-resolution mass spectrometer.
The structures of the major metabolites found in plasma, urine, and feces were also confirmed by comparisons with the synthetic reference standard M324.

[4] = Metabolite profiling in plasma (LC-MS-TopCount); details: for Amount detected in plasma: Hamilton AUC0-24h pooled plasma
Description: Plasma samples from six patients were pooled using two methods: (1) A Hamilton pool plasma (0–24 h) for metabolite profile determination was prepared by combining plasma aliquots of a volume proportional to the time interval used for calculating the AUC (AUC0-24h pool) for each patient and (2) four time-point pooling samples were obtained by equal volume pool at 1, 4, 8, and 24 h across six patients. In addition, plasma samples at 1, 8, and 24 h were selected from three patients (Patients 03, 08, and 09) for metabolite profiles analysis to check the individual differences between patients. Samples collected after 24 h post dose were not included in the pooling due to the low radioactivity at later time points. All plasma samples (pooled and from individuals) were extracted at least two times with acetonitrile. All supernatants were evaporated to dryness, and the dried residues were reconstituted in 20% acetonitrile in water containing 0.1% TFA. The sample recovery was obtained by comparing the radioactivity concentrations before and after extraction, and the mean recovery was about 70%.
Aliquots of the supernatants were injected into the HPLC, and the HPLC elutes were collected as fractions at intervals of 30 sec per well into LumaPlate-96 DeepWell microplates (PerkinElmer). Due to the low radioactivity in each plasma sample, metabolite profiles were obtained by TopCount (PerkinElmer) analysis of HPLC elutes. The fractions were dried at room temperature, and then analyzed by a TopCount NXT radiometric microplate reader (PerkinElmer) to obtain metabolite profiles. The supernatants of extracts were also analyzed using an LC-MS method to identify metabolites.
as §1, §2

[5] = 0-24 h pooled plasma, N = 6, mean ± SD

- % of dose in pooled urine, Patient 01 ([1]; Patient 01): 6.17 % dose
- % of dose in pooled urine, Patient 03 ([1]; Patient 03): 7.24 % dose
- % of dose in pooled urine, Patient 05 ([1]; Patient 05): 7.22 % dose
- % of dose in pooled urine, Patient 06 ([1]; Patient 06): 8.54 % dose
- % of dose in pooled urine, Patient 08 ([1]; Patient 08): 6 % dose
- % of dose in pooled urine, Patient 09 ([1]; Patient 09): 10.3 % dose
- % Peak (of TRA) in urine ([1]; pooled urine covering 90% of urine radioactivity, N = 6, mean ± SD): 50.0 ± 15.5%
- % Dose in urine ([1]; pooled urine, % of administered dose, N = 6, mean ± SD): 7.58 ± 1.61%
- % of dose in pooled fecal homogenate, Patient 01 ([2]; Patient 01): 6.39 % dose
- % of dose in pooled fecal homogenate, Patient 03 ([2]; Patient 03): 7.82 % dose
- % of dose in pooled fecal homogenate, Patient 05 ([2]; Patient 05): 3.33 % dose
- % of dose in pooled fecal homogenate, Patient 06 ([2]; Patient 06): 2.22 % dose
- % of dose in pooled fecal homogenate, Patient 08 ([2]; Patient 08): 0.00 % dose
- % of dose in pooled fecal homogenate, Patient 09 ([2]; Patient 09): 0.00 % dose
- % Peak (of TRA) in feces ([2]; pooled fecal homogenate covering >90% of fecal excretion, N = 6, mean ± SD): 5.07 ± 4.95%
- % Dose in feces ([2]; pooled fecal homogenate, % of administered dose, N = 6, mean ± SD): 3.3% and 3.29 ± 3.25%
- Matrix in which identified [3]: P, U, F
- % Peak (of plasma radioactivity), Hamilton (AUC0-24h) pooled plasma [4, 5]: 18.6 ± 10.8%
- Concentration, Hamilton (AUC0-24h) pooled plasma [4, 5]: 94.0 ± 62.7 ng Eq/mL
- M324 as percentage of unchanged rucaparib exposure in 24-h pooled plasma ([4]; Hamilton 0-24 h pooled plasma): 30.3%
- % Radioactive peaks in individual plasma, Patient 03, 1 h ([4]; Patient 03, 1 h): 15.4%
- % Radioactive peaks in individual plasma, Patient 03, 8 h ([4]; Patient 03, 8 h): 33.3%
- % Radioactive peaks in individual plasma, Patient 03, 24 h ([4]; Patient 03, 24 h): 63.9%
- % Radioactive peaks in individual plasma, Patient 08, 1 h ([4]; Patient 08, 1 h): 7.94%
- % Radioactive peaks in individual plasma, Patient 08, 8 h ([4]; Patient 08, 8 h): 20%
- % Radioactive peaks in individual plasma, Patient 08, 24 h ([4]; Patient 08, 24 h): 61.5%
- % Radioactive peaks in individual plasma, Patient 09, 1 h ([4]; Patient 09, 1 h): 15.4%
- % Radioactive peaks in individual plasma, Patient 09, 8 h ([4]; Patient 09, 8 h): 17.9%
- % Radioactive peaks in individual plasma, Patient 09, 24 h ([4]; Patient 09, 24 h): 36.2%
- % Radioactive peaks in individual plasma, Mean ± SD, 1 h ([4]; Patients 03, 08, 09, 1 h): 12.9 ± 4.31%
- % Radioactive peaks in individual plasma, Mean ± SD, 8 h ([4]; Patients 03, 08, 09, 8 h): 23.7 ± 8.35%
- % Radioactive peaks in individual plasma, Mean ± SD, 24 h ([4]; Patients 03, 08, 09, 24 h): 53.9 ± 15.3%
- AUC0-24h, Hamilton (AUC0-24h) pooled plasma ([4]; concentration in 0-24-h pooled sample × 24 h): 2260 ng Eq h/mL
- concentration at 1 h ([4]; human, plasma, oral, 600 mg, single pooled sample from all six patients, 1 h, read-out: Mean concentration, time point pooled plasma, 1 h): 0.0311 µg/mL
- concentration at 4 h ([4]; human, plasma, oral, 600 mg, single pooled sample from all six patients, 4 h, read-out: Mean concentration, time point pooled plasma, 4 h): 0.265 µg/mL
- concentration at 8 h ([4]; human, plasma, oral, 600 mg, single pooled sample from all six patients, 8 h, read-out: Mean concentration, time point pooled plasma, 8 h): 0.105 µg/mL
- concentration at 24 h ([4]; human, plasma, oral, 600 mg, single pooled sample from all six patients, 24 h, read-out: Mean concentration, time point pooled plasma, 24 h): 0.239 µg/mL
- Mean AUC0-24h, time point pooled plasma ([4]; trapezoidal method from 1, 4, 8, 24 h pools): 3960 ng Eq h/mL
Structure (SMILES): O=C(O)c1ccc(-c2[nH]c3cc(F)cc4c3c2CCNC4=O)cc1 [M324]

- Amount observed in urine ([1]; pooled urine): small to trace amounts
- Amount detected in feces [2]: trace amounts
- Matrix in which identified [3]: P, U, F
- Amount detected in plasma [4]: small or trace amounts
Structure (SMILES): NCc1ccc(-c2[nH]c3cc(F)cc4c3c2CCNC4=O)cc1 [M309]

- Amount observed in urine ([1]; pooled urine): small to trace amounts
- Amount detected in feces [2]: trace amounts
- Matrix in which identified [3]: P, U, F
- Amount detected in plasma [4]: small or trace amounts
Structure (SMILES): O=CNCc1ccc(-c2[nH]c3cc(F)cc4c3c2CCNC4=O)cc1 [M337b]

- Amount observed in urine ([1]; pooled urine): small to trace amounts
- Amount detected in feces [2]: trace amounts
- Matrix in which identified [3]: P, U, F
- Amount detected in plasma [4]: small or trace amounts
Structure (SMILES): NC(=O)c1ccc(-c2[nH]c3cc(F)cc4c3c2CCNC4=O)cc1 [M323]
